In the assay the test system is CEM cells HIV-1 protection, formazan growth assay. As to the kind of experiment: NCI AIDS Antiviral Assay. As to conditions: for IC50: measured here: growth of uninfected CEM cells. The gist of the method:
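CEM (human) cells, HIV-1 infected vs uninfected, 5-point dosing, formazan growth read-out. Retest threshold 50% protection.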

As a reminder, the EC50 is the concentration at which the effect is half-maximal. One may read the IC50 as the concentration needed to halve the response being measured.

The source made the active and inactive calls.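 The calls were made as follows: active = compounds giving half or more protection of infected cells from virus-caused growth loss, again on retest; inactive = the rest.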 Bounds are passed on as bounds.

Take `CSC(SC)(C(=O)O)c1cc(-c2c(Cl)cccc2Cl)no1`: the EC50 was greater than 81.3 µM and the 50% inhibitory concentration (IC50) stood at 70.8 µM.

On to `CCCCN=c1ssc(=O)n1CCCC`, for which the EC50 was greater than 200 µM and the IC50 was 26.3 µM.

As for `O=c1[nH]c2cc(Cl)ccc2c2ccc(Cl)cc12`, the EC50 was greater than 200 µM and the concentration for half-maximal inhibition (IC50) was greater than 200 µM.

As for `N#C/C(=C\c1ccco1)C(N)=O`, the EC50 is greater than 200 µM and the IC50 is greater than 200 µM.

`N#CCN1CCCCCC1`: the EC50 was greater than 200 µM and the IC50 is greater than 200 µM.

For `CN1CCC2c3c([nH]c4ccccc34)C(C)(C)OC2C1` (stereo not given), the EC50 is greater than 200 µM and the 50% inhibitory concentration (IC50) was greater than 200 µM.

Regarding `Cc1cccc(Nc2cn(CCOc3ccccc3)c(=O)[nH]c2=O)c1`, the EC50 is greater than 200 µM and the half-inhibitory concentration (IC50) is 27.5 µM.

Regarding `CCOC(=O)CC1(C)SCCN1C(=O)OCC` (stereo not given), the EC50 is greater than 200 µM and the IC50 is greater than 200 µM.

In the case of `O=C(O)C12C3C4(C(=O)O)C1C1(C(=O)O)C2C3(C(=O)O)C41` (stereo not given), the EC50 is greater than 200 µM and the half-maximal inhibitory concentration (IC50) is greater than 200 µM.

On to `Nc1nc(=S)c2c(ncn2CC(O)CO)[nH]1` (stereo not given), for which the 50% effective concentration (EC50) is 363 µM and the IC50 stood at 525 µM.

Take `O=C1CCC2(CCC(=O)NC2=O)C(=O)N1`: the EC50 was greater than 1200 µM and the IC50 is greater than 1200 µM.

For `CC1(c2ccccc2)CCN(C2CC2)CO1` (stereo not given), the EC50 is greater than 200 µM and the half-maximal inhibitory concentration (IC50) worked out at 23.4 µM.

On to `CCN(CC)CCOc1ccc(/C(C#N)=C/c2ccc(OCCO)cc2)cc1`, for which the EC50 is greater than 200 µM and the half-inhibitory concentration (IC50) is 20.9 µM.

Regarding `Cc1ccc(N=C2C(c3ccccc3)=C(SC3=C(c4ccccc4)C(=Nc4ccc(C)cc4)c4ccccc43)c3ccccc32)cc1`, the EC50 was greater than 200 µM and the concentration for half-maximal inhibition (IC50) is 174 µM.

Consider `Cn1nc2ccc(Nc3cc(=O)[nH]c4ccc5nn(C)nc5c34)cc2n1`, for which the EC50 is greater than 200 µM and the IC50 turned out to be 95.5 µM.

Turning to `COCC12CC(CC1=O)C1C2ON2c3ccccc3C(=O)C12c1ccccc1` (stereo not given), the EC50 is greater than 50.1 µM and the half-maximal inhibitory concentration (IC50) is greater than 50.1 µM.

Regarding `Cc1nnc2n1-c1ccc(Cl)cc1C(c1ccccc1)=[N+]([O-])C2`, the EC50 was greater than 398 µM and the concentration for half-maximal inhibition (IC50) was 355 µM.

With `C=CCCC1(CCP(=O)(c2ccccc2)c2ccccc2)OCCO1`, the EC50 is greater than 708 µM and the IC50 amounted to 155 µM.

For `O=C(Nc1nc2ccccc2[nH]1)C(=O)NC12CC3CC(CC(C3)C1)C2`, the result was inactive.

For the compound `CCCC(/C=N/N=C(N)N)=N\N=C(N)N`, the EC50 was greater than 83.2 µM and the 50% inhibitory concentration (IC50) is greater than 83.2 µM.

Turning to `COc1cc2c(c3oc(=O)cc(C)c13)C(=O)[C@H](C)[C@@H](C)O2`, the EC50 is greater than 200 µM and the half-maximal inhibitory concentration (IC50) was 126 µM.

As for `CC(=O)Nc1cc(C)ccc1Cl`, the EC50 was greater than 1350 µM and the IC50 is greater than 1350 µM.

In the case of `Cc1ccc2c(c1)CC1(Cc3ccccc3C1=O)C2=O` (stereo not given), the EC50 was greater than 200 µM and the IC50 is 195 µM.

Consider `CCOP(=O)(OCC)/C(C#N)=C\c1ccc(OC(C)=O)cc1`, for which the EC50 is greater than 562 µM and the half-inhibitory concentration (IC50) is greater than 562 µM.

As for `CCOC(=O)CC1(C)c2nc(NC(C)=O)sc2Cc2sc(NC(C)=O)nc21`, the EC50 is greater than 200 µM and the IC50 is 186 µM.

In the case of `C=C1CC(c2ccc(S(=O)(=O)N3CCOCC3)cc2)OC1=O` (stereo not given), the EC50 is greater than 200 µM and the IC50 came out at 2.82 µM.

As to `CC(C)(C)OC(=O)C1C(=O)C(C(=O)OC(C)(C)C)C2(C)C(C(=O)OC(C)(C)C)C(=O)C(C(=O)OC(C)(C)C)C12C` (stereo not given), the EC50 is greater than 31.6 µM and the concentration for half-maximal inhibition (IC50) turned out to be 11.2 µM.

Turning to `CC(C)C(=O)C(C)(C)C(=O)C(C)(C)C(=O)OC(C)(C)C`, the EC50 was greater than 200 µM and the concentration for half-maximal inhibition (IC50) was greater than 200 µM.

`C#CCOC(=O)c1ccccc1O`: the EC50 is greater than 200 µM and the IC50 is greater than 200 µM.

Take `CCCCC#COS(=O)(=O)c1ccc(C)cc1`: the EC50 is greater than 251 µM and the IC50 stood at 138 µM.

`N#CC(C#N)=Cc1cc(Cl)ccc1O`: the EC50 was greater than 200 µM and the concentration for half-maximal inhibition (IC50) is 29.5 µM.

Regarding `O=C(Cc1ccccc1)NN1C(=O)C(Cl)C1c1cccc(O)c1` (stereo not given), the EC50 was greater than 40.7 µM and the concentration for half-maximal inhibition (IC50) is 15.5 µM.

On to `O=C1c2ccccc2C(Br)(Br)c2ccccc21`, for which the outcome was inactive.

As to `CC1CN=C(Nc2cccc(C(F)(F)F)c2)S1` (stereo not given), the EC50 was greater than 200 µM and the IC50 turned out to be 57.5 µM.

In the case of `CCCCCCCN=c1ssc(=O)n1CCCCCCC`, the EC50 was greater than 200 µM and the IC50 amounted to 8.91 µM.

`O=C(CO)CC(=O)C(=O)Nc1nc([N+](=O)[O-])cs1`: the EC50 is greater than 132 µM and the IC50 is greater than 132 µM.

On to `CC(C)CCC[C@H](C)[C@H]1CC[C@H]2[C@@H]3CC=C4CC(OC(=O)OC5CCC6(C)CC7CCC6(OO7)C5(C)C)CC[C@]4(C)[C@H]3CC[C@]12C` (stereo not given in full), for which the EC50 is greater than 200 µM and the concentration for half-maximal inhibition (IC50) was greater than 200 µM.

With `O=C(c1ccc(Cl)cc1Cl)N(C(=O)N1CCCCC1)c1ccccc1`, the EC50 was greater than 200 µM and the IC50 was greater than 200 µM.

For the compound `CCN1CC2(COC)C(O)CC(OC)C34C5CC6(O)C(O)C5C(O)(C(O)C6OC)C(C(OC)C23)C14` (stereo not given), the EC50 was greater than 200 µM and the concentration for half-maximal inhibition (IC50) was greater than 200 µM.

Regarding `Cc1ccc(Nc2[nH]c(=O)[nH]c(=O)c2N=O)cc1`, the EC50 is greater than 200 µM and the half-inhibitory concentration (IC50) is greater than 200 µM.

For the compound `Clc1ccc(-c2nnc3n2NC(c2ccccc2)S3)c(Cl)c1` (stereo not given), the EC50 was greater than 85.1 µM and the 50% inhibitory concentration (IC50) was 69.2 µM.

As to `N=C1N=Nc2nc(C(C(=O)c3cccc4ccccc34)c3nc4n(c3O)C(=N)N=N4)c(O)n21` (stereo not given), the EC50 is greater than 200 µM and the half-maximal inhibitory concentration (IC50) was 117 µM.

In the case of `COc1cc2c(cc1O)C(=O)OC1CC=C3CC[N@@+](C)([O-])[C@H]3C21` (stereo not given in full), the EC50 is greater than 195 µM and the IC50 was greater than 195 µM.

For the compound `Nc1nc(CC2(O)CCCCC2)cc(-c2ccccc2)n1`, the EC50 was greater than 1.95 µM and the half-maximal inhibitory concentration (IC50) is greater than 1.95 µM.

As to `C/C(=N/NC(N)=S)C(CN(C)C)C(C1=C(O)c2ccccc2OC1)c1ccccc1` (stereo not given), the EC50 is greater than 141 µM and the IC50 was 107 µM.

In the case of `Cc1cn(C2CC(/[N+]([O-])=N/Nc3ccc([N+](=O)[O-])cc3)C(CO[Si](C)(C)C(C)(C)C)O2)c(=O)[nH]c1=O` (stereo not given), the EC50 was greater than 200 µM and the concentration for half-maximal inhibition (IC50) amounted to 7.41 µM.

For the compound `Cn1cnc([N+](=O)[O-])c1Sc1nc2ncccc2[nH]1`, the EC50 is greater than 912 µM and the IC50 worked out at 21.9 µM.

Regarding `COC(=O)NC1=Nc2ccccc2-c2ccccc2N1`, the EC50 is greater than 200 µM and the IC50 amounted to 123 µM.

For the compound `CN(C(=N)c1ccccc1)c1ccccc1`, the result was inactive.

On to `CC(Oc1ccc(OCC2CCCCC2)cc1)C(N)=O` (stereo not given), for which the EC50 is greater than 36.3 µM and the IC50 is 15.1 µM.

As for `COc1ccc(-c2coc3cc(OC)c(OC)c(OC)c3c2=O)cc1`, the EC50 was greater than 200 µM and the IC50 was greater than 200 µM.

`NC(N)=Nc1nn[nH]n1`: the EC50 was greater than 200 µM and the IC50 was greater than 200 µM.

Take `COc1ccc(Nc2nnc(-c3nsc4ccccc34)s2)cc1`: the EC50 is greater than 21.4 µM and the concentration for half-maximal inhibition (IC50) was greater than 21.4 µM.

As to `Cc1cc2c3ccccc3n(C)c2c2c1C(=O)c1ccccc1C2=O`, the EC50 is greater than 7.94 µM and the 50% inhibitory concentration (IC50) was greater than 7.94 µM.

`CCn1c2c(c3ccccc3c1=O)C(=O)c1ccccc1-2`: the EC50 was greater than 26.3 µM and the IC50 was greater than 26.3 µM.

Consider `Cc1cc(S(=O)(=O)n2cc[nH]c2=O)c(S)cc1Cl`, for which the EC50 was greater than 200 µM and the IC50 was greater than 200 µM.

`CC(=O)Oc1ccc(C)c2c1[C@H]1CC[C@]3(C)[C@@H](OC(C)=O)CC[C@H]3[C@@H]1CC2`: the EC50 was greater than 200 µM and the concentration for half-maximal inhibition (IC50) worked out at 32.4 µM.

For `CCOC(=O)Cn1c(=O)[nH]c(=O)c2c1ncn2Cc1ccccc1`, the EC50 was greater than 550 µM and the half-maximal inhibitory concentration (IC50) stood at 513 µM.

For `N.N.N.N.O=S([O-])[O-].[Co+3].[N-]=[N+]=[N-]`, the outcome was inactive.

Take `COc1ccc(-c2c3c(n(C4OC(CO)C(O)C(O)C4O)c(=S)c2C#N)CC(C)(C)CC3=O)cc1` (stereo not given): the EC50 was greater than 200 µM and the IC50 turned out to be 105 µM.

Turning to `c1ccc(-c2nc3cc4c(cc3n3cccc23)oc2ccccc24)cc1`, the EC50 was greater than 100 µM and the IC50 was found to be 85.1 µM.

As to `S=c1nc2sc3c(c2c(Nc2ccc(Cl)cc2)[nH]1)CCCC3`, the 50% effective concentration (EC50) was 43.7 µM and the IC50 was determined as 132 µM.

`Cc1ccc(Cc2nn(C)c(=O)n2N)cc1`: the result was inactive.

For the compound `C=CCOc1ccc(C2c3c([nH][nH]c3=O)CC(C)(O)C2C(=O)OC)cc1OC` (stereo not given), the EC50 was greater than 200 µM and the IC50 is greater than 200 µM.

Take `Cc1ccccc1NC(=O)O/N=C(\Cl)C(C)C`: the EC50 was greater than 20 µM and the half-maximal inhibitory concentration (IC50) was 3.16 µM.

Take `COc1cc(OC)c2c(=O)c3c([N+](=O)[O-])cccc3n(C)c2c1`: the EC50 was greater than 100 µM and the IC50 is greater than 100 µM.

As for `c1ccc2nocc2c1`, the EC50 was greater than 2090 µM and the IC50 was 1100 µM.

In the case of `CSC(=O)/C=C1\SS/C(=C\C(=O)SC)S1`, the EC50 was greater than 200 µM and the IC50 is 3.09 µM.

As for `Cc1cc(C)nc(NS(=O)(=O)c2ccc(NC(=O)c3ccc4nc5ccccc5c(Nc5ccc(S(=O)(=O)Nc6nc(C)cc(C)n6)cc5)c4c3)cc2)n1`, the EC50 is greater than 200 µM and the IC50 is 29.5 µM.

Turning to `COc1cccc(NC(=O)CC(=O)N2N=C(N(CCC#N)c3ccc(Cl)cc3)CC2c2ccccc2)c1` (stereo not given), the EC50 was greater than 69.2 µM and the IC50 is greater than 69.2 µM.

In the case of `CC1=C(c2cc(C(=O)Nc3cccc(Cl)c3)nc(NC#N)n2)Sc2ccccc2N1`, the outcome was inactive.

For the compound `Cn1c(=O)nc2n(-c3cccc(Br)c3)c3ccccc3nc-2c1=O`, the result was inactive.

Take `COc1ccc(/C=C/C(=O)c2c(-c3ccccc3)nn(C)c(=O)c2N2CCOCC2)cc1`: the EC50 is greater than 44.7 µM and the half-maximal inhibitory concentration (IC50) was greater than 44.7 µM.

As to `Cc1nc(Nc2nc3ccccc3[nH]2)nc(Cl)c1CCCl`, the result was inactive.

(Values after PubChem BioAssay AID179 (DTP/NCI, 2004).)
